Laboratory results: patent publication US4962108A, “Antibacterial quinoline compounds” (Warner-Lambert Company, priority 1988, dated 1990)
Converted amounts (≈) assume the structure as drawn. Where two headings read alike, the source gives them in different places.

Key:
Experiment in all cases: in vitro antibacterial activity, microtitration dilution method
Format in all cases: cell-based
[1] = system: Enterobacter cloacae MA 2646
Source text: (§1) The compounds of the invention display antibacterial activity when tested by the microtitration dilution method as described in Heifetz, et al, Antimicr. Agents & Chemoth., 6, 124 (1974), which is incorporated herein by reference.
(§2) By use of the above reference method, the following minimum inhibitory concentration value (MICs in μg/ml) shown in Table I were obtained for representative compounds of the invention.

Escherichia coli Vogel = settings: read-out: minimal inhibitory concentration (MIC)
Source text: as §1, §2

Proteus rettgeri M 1771 = settings: Providencia rettgeri, M1771, read-out: minimal inhibitory concentration (MIC)
Source text: as §1, §2

[2] = system: Klebsiella pneumoniae MGH-2
Source text: (§3) Agents & Chemoth., 6, 124 (1974), which is incorporated herein by reference.

[3] = system: Pseudomonas aeruginosa UI-18
Source text: as §3

[4] = system: Staphylococcus aureus H 228
Source text: as §3

[5] = system: Staphylococcus aureus UC-76
Source text: as §3

[6] = system: Streptococcus faecalis MGH-2; settings: Enterococcus faecalis
Source text: as §3

[7] = system: Streptococcus pneumoniae SV-1
Source text: as §3

[8] = system: Streptococcus pyogenes C-203
Source text: as §3

[9] = MA2646, in vitro, Enterobacter cloacae MA 2646, read-out: minimal inhibitory concentration (MIC)
[10] = MGH2, in vitro, Klebsiella pneumoniae MGH-2, read-out: minimal inhibitory concentration (MIC)
[11] = UI18, in vitro, Pseudomonas aeruginosa UI-18, read-out: minimal inhibitory concentration (MIC)
[12] = Staphylococcus aureus, H228, read-out: minimal inhibitory concentration (MIC)
[13] = UC76, in vitro, Staphylococcus aureus UC-76, read-out: minimal inhibitory concentration (MIC)
[14] = MGH2, read-out: minimal inhibitory concentration (MIC)
[15] = SV1, in vitro, Streptococcus pneumoniae SV-1, read-out: minimal inhibitory concentration (MIC)
[16] = C203, in vitro, Streptococcus pyogenes C-203, read-out: minimal inhibitory concentration (MIC)
[17] = H228, in vitro, Staphylococcus aureus H 228, read-out: minimal inhibitory concentration (MIC)
[18] = MGH2, in vitro, Streptococcus faecalis MGH-2, read-out: minimal inhibitory concentration (MIC)
[19] = Enterobacter cloacae, MA2646, read-out: minimal inhibitory concentration (MIC)
[20] = Klebsiella pneumoniae, MGH2, read-out: minimal inhibitory concentration (MIC)
[21] = Pseudomonas aeruginosa, UI18, read-out: minimal inhibitory concentration (MIC)
[22] = Staphylococcus aureus, UC76, read-out: minimal inhibitory concentration (MIC)

Structure (SMILES) | MIC [1, 9] [µg/mL] | MIC (Escherichia coli Vogel) [µg/mL] | MIC (Proteus rettgeri M 1771) [µg/mL] | MIC [2, 10] [µg/mL] | MIC [3, 11] [µg/mL] | MIC [4, 12] [µg/mL] | MIC [5, 13] [µg/mL] | MIC [6, 14] [µg/mL] | MIC [7, 15] [µg/mL] | MIC [8, 16] [µg/mL] | MIC [4, 17] [µg/mL] | MIC [6, 18] [µg/mL] | MIC ([8]; Streptococcus pyogenes, C203, read-out: minimal inhibitory concentration (MIC)) [µg/mL] | MIC [1, 19] [µg/mL] | MIC [2, 20] [µg/mL] | MIC [3, 21] [µg/mL] | MIC [5, 22] [µg/mL] | MIC ([7]; Streptococcus pneumoniae, SV1, read-out: minimal inhibitory concentration (MIC)) [µg/mL]
CCn1cc(C(=O)O)c(=O)c2cc(F)c(N3CC4CCCC3CN4)c(F)c21 (stereo not drawn) [Example 1, 7-(6,8-Diazabicyclo[3.2.2]non-6-yl)-1-ethyl-6,8-difluoro-1,4-dihydro-4-oxo-3-quinolinecarboxylic acid] | 0.4 (≈ 1.06 µM) | 0.4 (≈ 1.06 µM) | 0.8 (≈ 2.12 µM) | 0.8 (≈ 2.12 µM) | 3.1 (≈ 8.21 µM) | 0.2 (≈ 0.53 µM) | 0.05 (≈ 0.132 µM) | 0.8 (≈ 2.12 µM) | 0.8 (≈ 2.12 µM) | 1.6 (≈ 4.24 µM) |  |  |  |  |  |  |  | 
O=C(O)c1cn(C2CC2)c2c(F)c(N3CC4CCCC3CN4)c(F)cc2c1=O (stereo not drawn) [Example 2, 1-Cyclopropyl-7-(6,8-diazabicyclo[3.2.2]non-6-yl)-6,8-difluoro-1,4-dihydro-4-oxo-3-quinolinecarboxylic acid] | 0.1 (≈ 0.257 µM) | 0.4 (≈ 1.03 µM) | 0.4 (≈ 1.03 µM) | 0.2 (≈ 0.514 µM) | 0.8 (≈ 2.05 µM) |  | 0.05 (≈ 0.128 µM) |  | 0.2 (≈ 0.514 µM) |  | 0.05 (≈ 0.128 µM) | 0.2 (≈ 0.514 µM) | 0.8 (≈ 2.05 µM) |  |  |  |  | 
O=C(O)c1cn(C2CC2)c2nc(N3CC4CCCC3CN4)c(F)cc2c1=O (stereo not drawn) [Example 3, 1-cyclopropyl-7-(6,8-diazabicyclo[3.2.2]non-6-yl)-6-fluoro-1,4-dihydro-4-oxo-1,8-naphthyridine-3-carboxylic acid] |  | 0.03 (≈ 0.0806 µM) | 0.4 (≈ 1.07 µM) |  |  | 0.2 (≈ 0.537 µM) | 0.1 (≈ 0.269 µM) |  | 0.05 (≈ 0.134 µM) | 0.1 (≈ 0.269 µM) |  | 0.2 (≈ 0.537 µM) |  | 0.05 (≈ 0.134 µM) | 0.1 (≈ 0.269 µM) | 0.4 (≈ 1.07 µM) |  | 
CCn1cc(C(=O)O)c(=O)c2cc(F)c(N3CC4CCCC3CN4C)c(F)c21 (stereo not drawn) [Example 4, 1-Ethyl-6,8-difluoro-1,4-dihydro-7-(8-methyl-6,8-diazabicyclo[3.2.2]non-6-yl)-4-oxo-3-quinolinecarboxylic acid] | 1.6 (≈ 4.09 µM) | 0.8 (≈ 2.04 µM) | 6.3 (≈ 16.1 µM) | 1.6 (≈ 4.09 µM) | 12.5 (≈ 31.9 µM) | 0.2 (≈ 0.511 µM) | 0.1 (≈ 0.255 µM) | 0.8 (≈ 2.04 µM) | 0.8 (≈ 2.04 µM) | 1.6 (≈ 4.09 µM) |  |  |  |  |  |  |  | 
CCN[C@@H]1C[C@H]2CC[C@@H](C1)N2c1nc2c(cc1F)c(=O)c(C(=O)O)cn2C1CC1 [Example 5a, 1-cyclopropyl-7-[3-exo(ethylamino)-8-azabicyclo[3.2.1]oct-8-yl]-6-fluoro-1,4-dihydro-4-oxo-1,8-naphthyridine-3-carboxylic acid] | 0.8 (≈ 2 µM) | 0.2 (≈ 0.499 µM) | 3.1 (≈ 7.74 µM) | 0.4 (≈ 0.999 µM) | 1.6 (≈ 4 µM) | 0.2 (≈ 0.499 µM) |  |  | 0.2 (≈ 0.499 µM) | 0.4 (≈ 0.999 µM) |  | 0.4 (≈ 0.999 µM) |  |  |  |  | 0.2 (≈ 0.499 µM) | 
CCN[C@H]1C[C@H]2CC[C@@H](C1)N2c1nc2c(cc1F)c(=O)c(C(=O)O)cn2C1CC1 [Example 5b, 1-Cyclopropyl-7-[3-endo(ethylamino)-8-azabicyclo[3.2.1]oct-8-yl]-6-fluoro-1,4-dihydro-4-oxo-1,8-naphthyridine-3-carboxylic acid] | 0.8 (≈ 2 µM) | 0.4 (≈ 0.999 µM) | 3.1 (≈ 7.74 µM) | 0.8 (≈ 2 µM) | 3.1 (≈ 7.74 µM) |  | 0.4 (≈ 0.999 µM) | 0.8 (≈ 2 µM) | 0.4 (≈ 0.999 µM) | 0.4 (≈ 0.999 µM) | 0.8 (≈ 2 µM) |  |  |  |  |  |  | 
CCN[C@H]1C[C@H]2CC[C@@H](C1)N2c1c(F)cc2c(=O)c(C(=O)O)cn(C3CC3)c2c1F [Example 5c, 1-cyclopropyl-7-[3-endo(ethylamino)-8-azabicyclo[3.2.1]oct-8-yl]-6,8-difluoro-1,4-dihydro-4-oxo-3-quinolinecarboxylic acid] | 0.4 (≈ 0.958 µM) | 0.4 (≈ 0.958 µM) | 3.1 (≈ 7.43 µM) | 0.8 (≈ 1.92 µM) | 3.1 (≈ 7.43 µM) |  |  | 0.8 (≈ 1.92 µM) | 0.4 (≈ 0.958 µM) | 0.4 (≈ 0.958 µM) | 0.8 (≈ 1.92 µM) |  |  |  |  |  | 0.2 (≈ 0.479 µM) | 
CCN[C@@H]1C[C@H]2CC[C@@H](C1)N2c1c(F)cc2c(=O)c(C(=O)O)cn(C3CC3)c2c1F [Example 5d, 1-cyclopropyl-7-[3-exo(ethylamino)-8-azabicyclo[3.2.1]oct-8-yl]-6,8-difluoro-1,4-dihydro-4-oxo-3-quinolinecarboxylic acid] | 0.2 (≈ 0.479 µM) | 0.2 (≈ 0.479 µM) | 1.6 (≈ 3.83 µM) | 0.4 (≈ 0.958 µM) | 3.1 (≈ 7.43 µM) | 0.2 (≈ 0.479 µM) | 0.1 (≈ 0.24 µM) |  | 0.1 (≈ 0.24 µM) | 0.1 (≈ 0.24 µM) |  | 0.2 (≈ 0.479 µM) |  |  |  |  |  | 
CCN[C@@H]1C[C@H]2CC[C@@H](C1)N2c1cc2c(cc1F)c(=O)c(C(=O)O)cn2C1CC1 [Example 5e, 1-cyclopropyl-7-[3-exo(ethylamino)-8-azabicyclo[3.2.1]oct-8-yl]-6-fluoro-1,4-dihydro-4-oxo-3-quinolinecarboxylic acid] | 0.8 (≈ 2 µM) | 0.4 (≈ 1 µM) | 3.1 (≈ 7.76 µM) | 0.8 (≈ 2 µM) | 3.1 (≈ 7.76 µM) |  |  |  | 0.2 (≈ 0.501 µM) | 0.4 (≈ 1 µM) | 0.4 (≈ 1 µM) | 0.4 (≈ 1 µM) |  |  |  |  | 0.2 (≈ 0.501 µM) | 
CCN[C@H]1C[C@H]2CC[C@@H](C1)N2c1cc2c(cc1F)c(=O)c(C(=O)O)cn2C1CC1 [Example 5f, 1-cyclopropyl-7-[3-endo(ethylamino)-8-azabicyclo[3.2.1]oct-8-yl]-6-fluoro-1,4-dihydro-4-oxo-3-quinolinecarboxylic acid] | 1.6 (≈ 4.01 µM) | 1.6 (≈ 4.01 µM) | 12.5 (≈ 31.3 µM) | 3.1 (≈ 7.76 µM) | 6.3 (≈ 15.8 µM) |  | 0.8 (≈ 2 µM) |  |  | 1.6 (≈ 4.01 µM) | 3.1 (≈ 7.76 µM) | 3.1 (≈ 7.76 µM) |  |  |  |  |  | 1.6 (≈ 4.01 µM)
O=C(O)c1cn(C2CC2)c2cc(N3CC4CCCC3CN4)c(F)cc2c1=O (stereo not drawn) [Example 7, 1-Cyclopropyl-7-(6,8-diazabicyclo[3.2.2]non-6-yl)-6-fluoro-1,4-dihydro-4-oxo-3-quinolinecarboxylic acid] |  | 0.05 (≈ 0.135 µM) | 0.4 (≈ 1.08 µM) |  |  |  | 0.025 (≈ 0.0673 µM) |  | 0.05 (≈ 0.135 µM) | 0.05 (≈ 0.135 µM) | 0.1 (≈ 0.269 µM) | 0.1 (≈ 0.269 µM) |  | 0.05 (≈ 0.135 µM) | 0.1 (≈ 0.269 µM) | 0.4 (≈ 1.08 µM) |  | 
O=C(O)c1cn(C2CC2)c2c(Cl)c(N3CC4CCCC3CN4)c(F)cc2c1=O (stereo not drawn) [Example 8, 8-Chloro-1-cyclopropyl-7-(6,8-diazabicyclo[3.2.2]non-6-yl)-6-fluoro-1,4-dihydro-4-oxo-3-quinolinecarboxylic acid] | 0.2 (≈ 0.493 µM) | 0.2 (≈ 0.493 µM) | 0.4 (≈ 0.986 µM) | 0.2 (≈ 0.493 µM) | 0.8 (≈ 1.97 µM) | 0.2 (≈ 0.493 µM) | 0.05 (≈ 0.123 µM) |  | 0.1 (≈ 0.246 µM) | 0.1 (≈ 0.246 µM) |  | 0.2 (≈ 0.493 µM) |  |  |  |  |  | 
